Measurements: EPA's ToxValDB 9.5
Where “and” joins values, the source holds several entries; their conditions need not be identical. Equal values may be shown once.

Assays:
[1] = test system: Mus musculus; settings: for LC50: inhalation
[2] = test system: Oryctolagus sp.; settings: for LD50: acute
[3] = test system: Rattus norvegicus; settings: for LC50 / LD50: acute
[4] = test system: Rattus norvegicus; settings: oral
[5] = test system: Canidae; settings: chronic, oral, diet, Dog Other
[6] = short-term, duration: 13 days, oral, diet, B6C3F1
[7] = subchronic, duration: 13 weeks, oral, diet, B6C3F1
[8] = subchronic, duration: 13 weeks, oral, diet, Fischer 344
[9] = short-term, duration: 28 days, gavage, M, Sprague-Dawley, Deaths + Clinical Observation: Locomotor activity decrease, SalivationDiarrhea or loose stool Staining around nose and mouth + Functional …
[10] = duration: 1 years, F, liver effects
[11] = duration: 1 years, M, liver effects
[12] = duration: 1 years, M/F, Blood loss into the gastrointestinal tract + coagulation defect in male and female dogs
[13] = duration: 1 years, M/F, increased wbc, decreased rbc (females), increased alkaline phosphatase (males)
[14] = duration: 6 months, M/F, hematological effects
[15] = developmental, duration: 6 days, oral, ICR
[16] = reproduction developmental, duration: 6 days, oral, F, ICR
[17] = short-term, duration: 13 days, oral, gavage, B6C3F1
[18] = short-term, duration: 16 days, oral, gavage, B6C3F1
[19] = subchronic, duration: 13 weeks, oral, gavage, B6C3F1
[20] = reproduction developmental, duration: 13 days, oral, F, Japanese White
[21] = chronic, duration: 103 weeks, oral, gavage, F, Fischer 344
[22] = developmental, duration: 7 days, oral, Wistar
[23] = short-term, duration: 13 days, oral, gavage, Fischer 344
[24] = short-term, duration: 13 days, oral, gavage, M, Fischer 344
[25] = short-term, duration: 16 days, oral, gavage, Fischer 344
[26] = subchronic, duration: 30 days, oral, M, Sprague-Dawley
[27] = subchronic, duration: 30 days, oral, Sprague-Dawley

With `CC(C)(C)C(=O)O` [2,2-Dimethylpropanoic acid] as the compound, how does the LC50 ([1]; acute, Swiss) read?
The LC50 was < 4 mg/L.

And the LD50 ([2]; dermal)?
The LD50 was 3160 mg/kg.

What about the LD50 ([2]; dermal, semiocclusive) of the same compound?
Its LD50 is 3160 mg/kg.

What about the NOAEL ([2]; repeat dose other, dermal, M) of the same compound?
The NOAEL was 300 mg/kg-day.

What about the NOAEL ([2]; repeat dose other, dermal, semiocclusive) of the same compound?
Its NOAEL is 300 mg/kg-day.

And the LC50 ([3]; inhalation, Wistar)?
The LC50 was < 4 mg/L.

And the NOAEL ([3]; short-term, duration: 28 days, oral, gavage, Fischer 344)?
The NOAEL was 300 mg/kg-day.

What about the NOAEL ([4]; short-term, duration: 28 days, gavage, M/F, Fischer 344, Clinical Observation: Head shaking Sneezing Dark nasal discharge + Blood Chemistry: ALP increase, T-Cho increase, T-Bil increase + Absolute …) of the same compound?
The NOAEL was 300 mg/kg-day.

Which results are given for `CC(C)(N)CO` [2-Amino-2-methylpropan-1-ol]?
LD50 ([1]; acute, oral, gavage): 3350 mg/kg; LD50 ([2]; dermal, occlusive): > 2000 mg/kg; LOAEL ([3]; subchronic, duration: 3 months, oral, diet, Sprague-Dawley): 240 mg/kg-day

What does the source list for `Cc1cc(O)c(C(C)(C)C)cc1Sc1cc(C(C)(C)C)c(O)cc1C` [4,4'-Thiobis(6-tert-butyl-m-cresol)]?
LOAEL [1, 6]: 500 ppm; NOAEL [1, 6]: 250 ppm; LOAEL [1, 7]: 98.5 mg/kg-day; NOAEL [1, 7]: 49.2 mg/kg-day; LD50 ([2]; dermal, New Zealand): > 5010 mg/kg; LD50 ([2]; dermal, occlusive, New Zealand): > 5010 mg/kg; NOAEL ([2]; reproduction developmental, duration: 13 days, oral, gavage, F, New Zealand): 0.2 mg/kg-day; LD50 ([3]; oral, diet, Sprague-Dawley): 4150 mg/kg; LD50 ([3]; oral, gavage, Sprague-Dawley): 4150 mg/kg; LOAEL ([3]; short-term, duration: 13 days, oral, diet, Fischer 344): 250 ppm; NOAEL ([3]; short-term, duration: 15 days, oral, diet, Fischer 344): 2500 ppm; LOAEL [3, 8]: 96 mg/kg-day; NOAEL [3, 8]: 48 mg/kg-day; NOAEL [4, 9]: 60 mg/kg-day; NOEL [4, 9]: < 60 mg/kg-day; NOEL ([4]; subchronic, duration: 13 weeks, diet, F, Fischer 344, Clinical Observation: Diarrhea + Body Weight Changes: decrease + Food Consumption: decrease + Hematology: Nucleated erythrocyte increase, …): < 15 mg/kg-day; NOEL ([4]; subchronic, duration: 13 weeks, diet, M/F, Fischer 344, Clinical Observation: Diarrhea + Body Weight Changes: decrease + Food Consumption: decrease + Hematology: Nucleated erythrocyte increase, …): < 24 mg/kg-day

Which results are given for `COC(=O)c1ccccc1CS(=O)(=O)NC(=O)Nc1nc(OC)cc(OC)n1` [Bensulfuron-methyl]?
LEL [5, 10]: 223 mg/kg-day; NOEL [5, 10]: 19.9 mg/kg-day; LEL [5, 11]: 237 mg/kg-day; NOEL [5, 11]: 21.4 mg/kg-day

Which results are given for `CC(C)N1C(=O)c2ccccc2NS1(=O)=O` [Bentazone]?
LOAEL [5, 12]: 13.1 mg/kg-day; NOAEL [5, 12]: 3.2 mg/kg-day

Which results are given for `CCOC(=O)c1ccccc1S(=O)(=O)NC(=O)Nc1nc(Cl)cc(OC)n1` [Chlorimuron-ethyl]?
LEL [5, 13]: 37.5 mg/kg-day; NOEL [5, 13]: 6.25 mg/kg-day

Which results are given for `O=C(Cl)CCl` [Chloroacetyl chloride]?
LC50 ([1]; acute): 11100 mg/m3; LD50 ([2]; dermal, semiocclusive, New Zealand): ≥ 316 mg/kg and ≤ 501 mg/kg; LC50 ([3]; inhalation, Fischer 344): 3050 mg/m3; LD50 ([3]; oral): ≥ 1260 mg/kg and ≤ 2500 mg/kg; LD50 ([3]; oral, Sprague-Dawley): 207 mg/kg; LOAEL ([3]; short-term, duration: 4 weeks, inhalation, Fischer 344): 2.31 mg/m3

Which LEL [5, 14] does the source give for `Nc1nc(N)nc(NC2CC2)n1` [Cyromazine] here?
Its LEL is 7.5 mg/kg-day.

What about the NOEL [5, 14] of the same compound?
Its NOEL is 0.75 mg/kg-day.

`C=C(C)[C@H]1CC=C(C)CC1` [D-Limonene] was tested. Which NOAEL ([1]; chronic, duration: 103 weeks, oral, gavage, B6C3F1) did it give?
The NOAEL was 500 mg/kg-day.

And the LOAEL ([1]; chronic, duration: 103 weeks, oral, gavage, F, B6C3F1)?
The LOAEL was 1000 mg/kg-day.

What about the LOAEL [1, 15] of the same compound?
Its LOAEL is 2360 mg/kg-day.

What about the NOAEL [1, 15] of the same compound?
Its NOAEL is 591 mg/kg-day.

What about the LOAEL [1, 16] of the same compound?
Its LOAEL is 2360 mg/kg-day.

And the NOAEL [1, 16]?
Its NOAEL is 591 mg/kg-day.

And the LOAEL [1, 17]?
Its LOAEL is 1000 mg/kg-day.

What about the NOAEL [1, 17] of the same compound?
Its NOAEL is 500 mg/kg-day.

And the LOAEC [1, 18]?
The LOAEC was 3300 mg/kg-day.

And the LOAEL [1, 18]?
Its LOAEL is 3300 mg/kg-day.

And the NOAEL [1, 18]?
The NOAEL was 1650 mg/kg-day.

What about the LOAEL [1, 19] of the same compound?
The LOAEL was 1000 mg/kg-day.

And the NOAEL [1, 19]?
Its NOAEL is 500 mg/kg-day.

And the LOAEL [2, 20]?
Its LOAEL is 500 mg/kg-day.

What about the NOAEL [2, 20] of the same compound?
Its NOAEL is 250 mg/kg-day.

What about the NOAEL ([2]; reproduction developmental, duration: 13 days, oral, Japanese White, generation: F1) of the same compound?
The NOAEL was > 1000 mg/kg-day.

And the LOAEL [3, 21]?
The LOAEL was 600 mg/kg-day.

And the NOAEL [3, 21]?
The NOAEL was 300 mg/kg-day.

What about the LOAEL ([3]; chronic, duration: 103 weeks, oral, gavage, M, Fischer 344) of the same compound?
Its LOAEL is 75 mg/kg-day.

What about the LOAEL [3, 22] of the same compound?
Its LOAEL is 2870 mg/kg-day.

And the NOAEL [3, 22]?
Its NOAEL is 591 mg/kg-day.

And the NOAEL ([3]; reproduction developmental, duration: 7 days, oral, F, Wistar)?
Its NOAEL is 591 mg/kg-day.

And the LOAEL [3, 23]?
Its LOAEL is 600 mg/kg-day.

What about the NOAEL [3, 23] of the same compound?
Its NOAEL is 300 mg/kg-day.

What about the LOAEL [3, 24] of the same compound?
Its LOAEL is 30 mg/kg-day.

What about the NOAEL [3, 24] of the same compound?
Its NOAEL is 5 mg/kg-day.

And the LOAEC [3, 25]?
Its LOAEC is 1650 mg/kg-day.

And the LOAEL [3, 25]?
The LOAEL was 3300 mg/kg-day.

And the NOAEL [3, 25]?
Its NOAEL is 1650 mg/kg-day.

And the LOAEL [3, 26]?
Its LOAEL is 2770 mg/kg-day.

What about the NOAEL [3, 26] of the same compound?
The NOAEL was 1380 mg/kg-day.

And the LOAEL [3, 27]?
Its LOAEL is 2770 mg/kg-day.

What about the NOAEL [3, 27] of the same compound?
The NOAEL was 1380 mg/kg-day.

And the NOEL ([4]; subchronic, duration: 13 weeks, gavage, M/F, Fischer 344, Deaths + Clinical Observation: Rough hair coats Excessive lacrimation + Body Weight Changes: decrease + Histopathology: Kidney-Nephropathy)?
The NOEL was < 150 mg/kg-day.
